Data from patent publication US20260217765A1, “NOVEL ANTIMICROBIAL PEPTIDE DESIGNED FROM DUCK-DERIVED ANTIMICROBIAL PEPTIDE ANDUSE THEREOF” (INDUSTRY-ACADEMIC COOPERATION FOUNDATION, CHOSUN UNIVERSITY, priority 2023, published 2026).
One block for each compound: values may come before it. Peptide text beside a SMILES is read from it.

Columns and labels:
[1] = system: Acinetobacter baumannii_isolate 10; type: cell-based, Acinetobacter baumannii; conditions: isolate 10, 24 h
Protocol: (§1) Specifically, among the bacterial strains listed in Table 2, those known to form biofilms well (Acinetobacter baumannii KCTC 2508, Acinetobacter baumannii isolate 10, and isolate 14) were cultured in the appropriate media to the mid-log phase and diluted to a cell concentration of 5×10^4 cells/100 µL, followed by inoculation into microplates (SPL). Subsequently, the peptides prepared in <Example 1> were serially 10-fold diluted with 10 mM sodium phosphate buffer (pH 7.2), and 10 μL of each dilution was added to each well. The plates were then incubated at 37° C. for 24 hours. After completely removing the supernatant, the plates were fixed with 100% methanol for 15 minutes, stained with crystal violet staining solution for 1 hour, washed three times, and then the stain was solubilized with 95% ethanol. Absorbance was measured at 595 nm using a microplate reader to determine the MBIC values for each bacterial strain.

[2] = system: Acinetobacter baumannii_isolate 14; type: cell-based, Acinetobacter baumannii; conditions: isolate 14, 24 h
Protocol: as §1

[3] = system: Acinetobacter baumannii KCTC 2508; type: cell-based; conditions: KCTC 2508, 24 h
Protocol: as §1

plasmid DNA (pRSETB) = assay: Binding to bacterial DNA, agarose gel electrophoresis; conditions: 260 ng plasmid DNA, DNA/peptide ratios 1:1 to 1:4, 37° C. 10 minutes
Protocol: Accordingly, to further elucidate the mechanism by which these novel peptides exert antimicrobial activity, it was examined whether the novel peptides dCATH-A6 and dCATH-A7 bind to intracellular bacterial DNA using electrophoresis.
Specifically, 260 ng of plasmid DNA (pRSETB) was reacted with each peptide at various ratios (lanes 1 through […] represent DNA only, 1:1, 1:2, 1:3, and 1:4 DNA/peptide ratios, respectively) at 37° C. for 10 minutes. The samples were then subjected to electrophoresis on a 1% agarose gel, stained with ethidium bromide (EtBr), and visualized under UV light.

[4] = system: Acinetobacter baumannii membrane; assay: Flow cytometry, propidium iodide, action on bacterial membrane; type: cell-based; conditions: peptide at twice the MIC, 37° C. 10 minutes
Protocol: To determine whether the peptides prepared in <Example 1> act on bacterial membranes, the parent peptide and the novel peptides dCATH-A1, dCATH-A2, dCATH-A3, dCATH-A4, dCATH-A5, dCATH-A6, and dCATH-A7 were analyzed using flow cytometry.
Specifically, Acinetobacter baumannii was treated with each peptide at twice the minimum inhibitory concentration (MIC), followed by incubation at 37° C. for 10 minutes. The supernatant was then removed by centrifugation at 10,000 rpm, and the bacterial cells were stained with propidium iodide (PI) at a concentration of 10 μg/mL at 4° C. for 30 minutes. Unbound PI was removed by centrifugation, and 1 mL of phosphate-buffered saline (PBS) was added to disperse any cell clumps. The effect of the peptides on the bacterial membrane was then assessed using a Beckman flow cytometer.

in vitro = type: cell-based; conditions: human, HaCaT keratinocyte cells, Cell Viability
Protocol: To evaluate the cytotoxicity of the peptides prepared in <Example 1>, toxicity was measured using a human keratinocyte cell line (HaCaT cell line, Dr. N. E. Fusenig, Heidelberg, Germany).
Specifically, HaCaT cells cultured in DMEM medium containing 10% fetal bovine serum (FBS) were seeded at a density of 2×10^5 cells/well into a microtiter plate and incubated for 24 hours. Then, peptides dCATH, dCATH-A1, dCATH-A2, dCATH-A3, dCATH-A4, dCATH-A5, dCATH-A6, and dCATH-A7 were added to each well at concentrations of 3.13, 6.25, 12.5, 25.0, 50.0, and 100.0 μM/well, followed by incubation for 24 hours in a 5% CO2 incubator. After 24 hours, 100 μL of a reaction solution containing 0.5 mg/mL MTT (Thiazolyl Blue Tetrazolium Bromide) dissolved in phosphate-buffered saline (PBS) was added to each well and reacted for 4 hours. After removing the supernatant, 200 μL of DMSO (dimethyl sulfoxide) was added to dissolve the formed MTT crystals, and absorbance at 570 nm was measured to determine cell viability.

- binding to DNA (electrophoresis) (plasmid DNA (pRSETB)): no detectable binding to DNA
SMILES: CC[C@H](C)[C@H](NC(=O)[C@H](C)NC(=O)[C@H](CC(C)C)NC(=O)[C@@H]1CCCN1C(=O)[C@@H](NC(=O)[C@H](CC(C)C)NC(=O)[C@H](CCC(N)=O)NC(=O)[C@H](Cc1c[nH]c2ccccc12)NC(=O)[C@H](Cc1ccccc1)NC(=O)[C@H](CCCNC(=N)N)NC(=O)[C@@H](N)CCCCN)C(C)C)C(=O)N[C@@H](CCCCN)C(=O)N[C@H](C(=O)N[C@@H](Cc1ccc(O)cc1)C(=O)N[C@@H](CCCNC(=N)N)C(=O)N[C@@H](C)C(=O)N[C@@H](Cc1c[nH]c2ccccc12)C(=O)N[C@@H](CCCCN)C(=O)N[C@@H](CCCNC(=N)N)C(=O)N[C@@H](CCCNC(=N)N)C(N)=O)[C@@H](C)CC [dCATH, reference compound] (H-KRFWQLVPLAIKIYRAWKRR-NH2; N-terminus assumed)
- MBIC [1]: 4 µM
- MBIC [2]: 4 µM
- MBIC [3]: 4 µM
- membrane damage in Acinetobacter baumannii (shift in PI fluorescence signal) [4]: induced membrane damage
- viability at 24 h, 3.13 µM (in vitro): 100%
- viability at 24 h, 6.25 µM (in vitro): 100%
- viability at 24 h, 12.5 µM (in vitro): 75.3%
- viability at 24 h, 25 µM (in vitro): 11.6%
- viability at 24 h, 50 µM (in vitro): 2.51%

SMILES: CC[C@H](C)[C@H](NC(=O)[C@H](C)NC(=O)[C@H](CC(C)C)NC(=O)[C@@H]1CCCN1C(=O)[C@@H](NC(=O)[C@H](CC(C)C)NC(=O)[C@H](CCC(N)=O)NC(=O)[C@H](Cc1c[nH]c2ccccc12)NC(=O)[C@H](C)NC(=O)[C@H](CCCNC(=N)N)NC(=O)[C@@H](N)CCCCN)C(C)C)C(=O)N[C@@H](CCCCN)C(=O)N[C@H](C(=O)N[C@@H](Cc1ccc(O)cc1)C(=O)N[C@@H](CCCNC(=N)N)C(=O)N[C@@H](C)C(=O)N[C@@H](Cc1c[nH]c2ccccc12)C(=O)N[C@@H](CCCCN)C(=O)N[C@@H](CCCNC(=N)N)C(=O)N[C@@H](CCCNC(=N)N)C(N)=O)[C@@H](C)CC [dCATH-A1] (H-KRAWQLVPLAIKIYRAWKRR-NH2; N-terminus assumed)
- MBIC [1]: 4 µM
- MBIC [2]: 2 µM
- MBIC [3]: 4 µM
- viability at 24 h, 3.13 µM (in vitro): 100%
- viability at 24 h, 6.25 µM (in vitro): 100%
- viability at 24 h, 12.5 µM (in vitro): 97.9%
- viability at 24 h, 25 µM (in vitro): 30%
- viability at 24 h, 50 µM (in vitro): 0.81%
- viability at 24 h, 100 µM (in vitro): 1.79%

SMILES: CC[C@H](C)[C@H](NC(=O)[C@H](C)NC(=O)[C@H](CC(C)C)NC(=O)[C@@H]1CCCN1C(=O)[C@@H](NC(=O)[C@H](CC(C)C)NC(=O)[C@H](CCC(N)=O)NC(=O)[C@H](C)NC(=O)[C@H](Cc1ccccc1)NC(=O)[C@H](CCCNC(=N)N)NC(=O)[C@@H](N)CCCCN)C(C)C)C(=O)N[C@@H](CCCCN)C(=O)N[C@H](C(=O)N[C@@H](Cc1ccc(O)cc1)C(=O)N[C@@H](CCCNC(=N)N)C(=O)N[C@@H](C)C(=O)N[C@@H](Cc1c[nH]c2ccccc12)C(=O)N[C@@H](CCCCN)C(=O)N[C@@H](CCCNC(=N)N)C(=O)N[C@@H](CCCNC(=N)N)C(N)=O)[C@@H](C)CC [dCATH-A2] (H-KRFAQLVPLAIKIYRAWKRR-NH2; N-terminus assumed)
- MBIC [1]: 2 µM
- MBIC [2]: 2 µM
- MBIC [3]: 4 µM
- viability at 24 h, 3.13 µM (in vitro): 100%
- viability at 24 h, 6.25 µM (in vitro): 100%
- viability at 24 h, 12.5 µM (in vitro): 89%
- viability at 24 h, 25 µM (in vitro): 30.7%
- viability at 24 h, 50 µM (in vitro): 2.99%
- viability at 24 h, 100 µM (in vitro): 2.16%

SMILES: CC[C@H](C)[C@H](NC(=O)[C@H](C)NC(=O)[C@H](CC(C)C)NC(=O)[C@@H]1CCCN1C(=O)[C@@H](NC(=O)[C@H](CC(C)C)NC(=O)[C@H](CCC(N)=O)NC(=O)[C@H](C)NC(=O)[C@H](C)NC(=O)[C@H](CCCNC(=N)N)NC(=O)[C@@H](N)CCCCN)C(C)C)C(=O)N[C@@H](CCCCN)C(=O)N[C@H](C(=O)N[C@@H](Cc1ccc(O)cc1)C(=O)N[C@@H](CCCNC(=N)N)C(=O)N[C@@H](C)C(=O)N[C@@H](Cc1c[nH]c2ccccc12)C(=O)N[C@@H](CCCCN)C(=O)N[C@@H](CCCNC(=N)N)C(=O)N[C@@H](CCCNC(=N)N)C(N)=O)[C@@H](C)CC [dCATH-A3] (H-KRAAQLVPLAIKIYRAWKRR-NH2; N-terminus assumed)
- MBIC [1]: 2 µM
- MBIC [2]: 1 µM
- MBIC [3]: 2 µM
- viability at 24 h, 3.13 µM (in vitro): 92%
- viability at 24 h, 6.25 µM (in vitro): 91.9%
- viability at 24 h, 12.5 µM (in vitro): 97.9%
- viability at 24 h, 25 µM (in vitro): 56.6%
- viability at 24 h, 50 µM (in vitro): 5.47%
- viability at 24 h, 100 µM (in vitro): 1.59%

SMILES: CC[C@H](C)[C@H](NC(=O)[C@H](C)NC(=O)[C@H](CC(C)C)NC(=O)[C@H](CCCCN)NC(=O)[C@@H](NC(=O)[C@H](CC(C)C)NC(=O)[C@H](CCC(N)=O)NC(=O)[C@H](C)NC(=O)[C@H](C)NC(=O)[C@H](CCCNC(=N)N)NC(=O)[C@@H](N)CCCCN)C(C)C)C(=O)N[C@@H](CCCCN)C(=O)N[C@H](C(=O)N[C@@H](Cc1ccc(O)cc1)C(=O)N[C@@H](CCCNC(=N)N)C(=O)N[C@@H](C)C(=O)N[C@@H](Cc1c[nH]c2ccccc12)C(=O)N[C@@H](CCCCN)C(=O)N[C@@H](CCCNC(=N)N)C(=O)N[C@@H](CCCNC(=N)N)C(N)=O)[C@@H](C)CC [dCATH-A4] (H-KRAAQLVKLAIKIYRAWKRR-NH2; N-terminus assumed)
- MBIC [1]: 4 µM
- MBIC [2]: 4 µM
- MBIC [3]: 4 µM
- viability at 24 h, 3.13 µM (in vitro): 90.9%
- viability at 24 h, 6.25 µM (in vitro): 90.2%
- viability at 24 h, 12.5 µM (in vitro): 58%
- viability at 24 h, 25 µM (in vitro): 5.59%
- viability at 24 h, 50 µM (in vitro): 2.49%
- viability at 24 h, 100 µM (in vitro): 1.36%

SMILES: CC[C@H](C)[C@H](NC(=O)[C@H](C)NC(=O)[C@H](CCCCN)NC(=O)[C@H](CCCCN)NC(=O)[C@@H](NC(=O)[C@H](CC(C)C)NC(=O)[C@H](CCC(N)=O)NC(=O)[C@H](C)NC(=O)[C@H](C)NC(=O)[C@H](CCCNC(=N)N)NC(=O)[C@@H](N)CCCCN)C(C)C)C(=O)N[C@@H](CCCCN)C(=O)N[C@H](C(=O)N[C@@H](Cc1ccc(O)cc1)C(=O)N[C@@H](CCCNC(=N)N)C(=O)N[C@@H](C)C(=O)N[C@@H](Cc1c[nH]c2ccccc12)C(=O)N[C@@H](CCCCN)C(=O)N[C@@H](CCCNC(=N)N)C(=O)N[C@@H](CCCNC(=N)N)C(N)=O)[C@@H](C)CC [dCATH-A5] (H-KRAAQLVKKAIKIYRAWKRR-NH2; N-terminus assumed)
- MBIC [1]: 2 µM
- MBIC [2]: 1 µM
- MBIC [3]: 2 µM
- viability at 24 h, 3.13 µM (in vitro): 100%
- viability at 24 h, 6.25 µM (in vitro): 92.3%
- viability at 24 h, 12.5 µM (in vitro): 95.1%
- viability at 24 h, 25 µM (in vitro): 58%
- viability at 24 h, 50 µM (in vitro): 8.27%
- viability at 24 h, 100 µM (in vitro): 3.71%
